# Source: patent US12077503B2, “Substituted cyclic amides and their use as herbicides” (FMC CORPORATION, priority 2015, dated 2024)
# Where two headings read alike, the source gives them in different places.
# Experiments:
# Assay in all cases: Test A preemergence
# Format in all cases: in vivo
# [1] = system: giant foxtail (Setaria faberii); conditions: Setaria faberi, pre-emergence, 240 h; for pest or weed control at 125 g/ha: 125 g ai/ha; for pest or weed control at 500 g/ha: 500 g ai/ha
# In short: (§1)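 Seeds sprayed preemergence with a directed soil spray, or plants at 2 to 10 cm height and one- to two-leaf stage sprayed postemergence, with test chemicals in a non-phytotoxic solvent mixture containing surfactant, in loam soil–sand blend. Injury rated visually against untreated controls after about 10 d in greenhouse, 0 (no effect) to 100 (complete control).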
# [2] = system: ryegrass, Italian (Italian ryegrass, Lolium multiflorum); conditions: Lolium multiflorum, pre-emergence, 240 h; for pest or weed control at 125 g/ha: 125 g ai/ha; for pest or weed control at 500 g/ha: 500 g ai/ha
# In short: as §1
# [3] = system: ragweed (common ragweed, Ambrosia elatior); conditions: Ambrosia artemisiifolia, pre-emergence, 240 h; for pest or weed control at 125 g/ha: 125 g ai/ha; for pest or weed control at 500 g/ha: 500 g ai/ha
# In short: as §1
# [4] = system: pigweed (Amaranthus retroflexus); conditions: Amaranthus retroflexus, pre-emergence, 240 h; for pest or weed control at 125 g/ha: 125 g ai/ha; for pest or weed control at 500 g/ha: 500 g ai/ha
# [5] = system: barnyardgrass (Echinochloa crus-galli); conditions: Echinochloa crus-galli, pre-emergence, 240 h; for pest or weed control at 125 g/ha: 125 g ai/ha; for pest or weed control at 500 g/ha: 500 g ai/ha
# In short: as §1
# [6] = preemergence, visual injury rating, 0 to 100 scale where 0 is no effect and 100 is complete control, approximately 10 d, read-out: Foxtail, Giant plant response rating
# [7] = preemergence, 0 to 100 scale where 0 is no effect and 100 is complete control, read-out: Foxtail, Giant plant response rating
# [8] = preemergence, visual injury rating, 0 to 100 scale where 0 is no effect and 100 is complete control, approximately 10 d, read-out: Ryegrass, Italian plant response rating
# [9] = preemergence, 0 to 100 scale where 0 is no effect and 100 is complete control, read-out: Ryegrass, Italian plant response rating
# [10] = preemergence, visual injury rating, 0 to 100 scale where 0 is no effect and 100 is complete control, approximately 10 d, read-out: Ragweed plant response rating
# [11] = preemergence, 0 to 100 scale where 0 is no effect and 100 is complete control, read-out: Ragweed plant response rating
# [12] = preemergence, visual injury rating, 0 to 100 scale where 0 is no effect and 100 is complete control, approximately 10 d, read-out: Pigweed plant response rating
# [13] = preemergence, 0 to 100 scale where 0 is no effect and 100 is complete control, read-out: Pigweed plant response rating
# [14] = preemergence, visual injury rating, 0 to 100 scale where 0 is no effect and 100 is complete control, approximately 10 d, read-out: Barnyardgrass plant response rating
# [15] = preemergence, 0 to 100 scale where 0 is no effect and 100 is complete control, read-out: Barnyardgrass plant response rating
# [16] = preemergence, visual rating after approx. 10 d, 0 to 100 scale where 0 is no effect and 100 is complete control, read-out: Plant response rating, Foxtail, Giant
# [17] = preemergence, visual rating after approx. 10 d, 0 to 100 scale where 0 is no effect and 100 is complete control, read-out: Plant response rating, Ryegrass, Italian
# [18] = preemergence, visual rating after approx. 10 d, 0 to 100 scale where 0 is no effect and 100 is complete control, read-out: Plant response rating, Ragweed
# [19] = preemergence, visual rating after approx. 10 d, 0 to 100 scale where 0 is no effect and 100 is complete control, read-out: Plant response rating, Pigweed
# [20] = preemergence, visual rating after approx. 10 d, 0 to 100 scale where 0 is no effect and 100 is complete control, read-out: Plant response rating, Barnyardgrass
# [21] = preemergence, 0 to 100 scale, 0 = no effect, 100 = complete control, read-out: Plant response rating, Foxtail, Giant
# [22] = preemergence, 0 to 100 scale, 0 = no effect, 100 = complete control, read-out: Plant response rating, Ragweed
# [23] = preemergence, 0 to 100 scale, 0 = no effect, 100 = complete control, read-out: Plant response rating, Pigweed
# [24] = preemergence, 0 to 100 scale, 0 = no effect, 100 = complete control, read-out: Plant response rating, Barnyardgrass
# [25] = preemergence, 0 to 100 scale, 0 = no effect, 100 = complete control, read-out: Plant response rating, Ryegrass, Italian
Compound,"pest or weed control at 125 g/ha [1, 6] [%]","pest or weed control at 500 g/ha [1, 7] [%]","pest or weed control at 125 g/ha [2, 8] [%]","pest or weed control at 500 g/ha [2, 9] [%]","pest or weed control at 125 g/ha [3, 10] [%]","pest or weed control at 500 g/ha [3, 11] [%]","pest or weed control at 125 g/ha [4, 12] [%]","pest or weed control at 500 g/ha [4, 13] [%]","pest or weed control at 125 g/ha [5, 14] [%]","pest or weed control at 500 g/ha [5, 15] [%]","pest or weed control at 125 g/ha [1, 16] [%]","pest or weed control at 125 g/ha [2, 17] [%]","pest or weed control at 125 g/ha [3, 18] [%]","pest or weed control at 125 g/ha [4, 19] [%]","pest or weed control at 125 g/ha [5, 20] [%]",further results
COc1cc(C(F)(F)F)ccc1[C@H]1CNC(=O)[C@@H]1C(=O)Nc1cccc(F)c1F [Compound 1203],80,90,0,20,30,80,0,20,80,90,,,,,,
CN1CC[C@H](c2ccc(C(F)(F)F)cc2)[C@@H](C(=O)Nc2ccccc2C(F)(F)F)C1=O [Compound 1224],80,90,0,20,0,20,50,70,40,80,,,,,,
Cc1cc(F)cc([C@H]2CNC(=O)[C@@H]2C(=O)Nc2ccccc2S(C)(=O)=O)c1 [Compound 1307],50,90,0,0,,60,0,0,80,90,,,,,,
O=C(Nc1cccc(F)c1F)[C@H]1C(=O)N(O)CC[C@@H]1c1ccc(F)cc1 [Compound 805],,,,,,,,,,,0,0,0,0,0,"pest or weed control at 31 g/ha ([1]; Preemergence, 31 g ai/ha, 0 to 100 scale (0 no effect, 100 complete control), read-out: Plant response rating, Foxtail, Giant): 0%; pest or weed control at 31 g/ha ([2]; Preemergence, 31 g ai/ha, 0 to 100 scale (0 no effect, 100 complete control), read-out: Plant response rating, Ryegrass, Italian): 0%; pest or weed control at 31 g/ha ([3]; Preemergence, 31 g ai/ha, 0 to 100 scale (0 no effect, 100 complete control), read-out: Plant response rating, Ragweed): 0%; pest or weed control at 31 g/ha ([4]; Preemergence, 31 g ai/ha, 0 to 100 scale (0 no effect, 100 complete control), read-out: Plant response rating, Pigweed): 0%; pest or weed control at 31 g/ha ([5]; Preemergence, 31 g ai/ha, 0 to 100 scale (0 no effect, 100 complete control), read-out: Plant response rating, Barnyardgrass): 0%"
Cc1ccc([C@H]2CCN(C)C(=O)[C@@H]2C(=O)Nc2ccccc2C(F)(F)F)cc1 [Compound 1219],80,90,0,0,0,0,0,0,70,90,,,,,,
Cc1cc(F)cc([C@H]2CNC(=O)[C@@H]2C(=O)Nc2cccc(F)c2F)c1 [Compound 1309],,90,,20,,50,,20,,90,,,,,,"pest or weed control at 125 g/ha ([1]; Preemergence, 0 to 100 scale (0 no effect, 100 complete control), read-out: Plant response rating, Foxtail, Giant): 80%; pest or weed control at 125 g/ha ([2]; Preemergence, 0 to 100 scale (0 no effect, 100 complete control), read-out: Plant response rating, Ryegrass, Italian): 0%; pest or weed control at 125 g/ha ([3]; Preemergence, 0 to 100 scale (0 no effect, 100 complete control), read-out: Plant response rating, Ragweed): 40%; pest or weed control at 125 g/ha ([4]; Preemergence, 0 to 100 scale (0 no effect, 100 complete control), read-out: Plant response rating, Pigweed): 0%; pest or weed control at 125 g/ha ([5]; Preemergence, 0 to 100 scale (0 no effect, 100 complete control), read-out: Plant response rating, Barnyardgrass): 90%"
N#Cc1ccc([C@H]2CNC(=O)[C@@H]2C(=O)Nc2cccc(F)c2F)cc1 [Compound 1206],80,90,0,0,0,60,50,90,70,100,,,,,,
CCc1ccc([C@H]2CNC(=S)[C@@H]2C(=O)Nc2cccc(F)c2F)cc1 [Compound 762],,,,,,,,,,,70,20,0,0,100,"pest or weed control at 500 g/ha [1, 21]: 100%; pest or weed control at 500 g/ha [3, 22]: 50%; pest or weed control at 500 g/ha [4, 23]: 0%; pest or weed control at 500 g/ha [5, 24]: 100%"
CN1C[C@H](c2cc(F)c(F)c(F)c2)[C@@H](C(=O)Nc2ccc(F)c(F)c2F)C1=O [Compound 757],,,,,,,,,,,90,30,20,30,90,"pest or weed control at 500 g/ha [1, 21]: 90%; pest or weed control at 500 g/ha [2, 25]: 60%; pest or weed control at 500 g/ha [3, 22]: 90%; pest or weed control at 500 g/ha [4, 23]: 70%; pest or weed control at 500 g/ha [5, 24]: 90%"
CN1C[C@H](c2ccc(C(F)(F)F)cc2)[C@@H](C(=O)Nc2ccccc2)C1=O [Compound 1253],100,100,20,60,40,60,50,80,90,100,,,,,,
O=C1NC[C@H](c2cccc(C(F)(F)F)c2)[C@H]1C(=O)Nc1ccccc1C1CC1 [Compound 748],,,,,,,,,,,40,0,0,0,0,"pest or weed control at 500 g/ha [1, 21]: 90%; pest or weed control at 500 g/ha [2, 25]: 0%; pest or weed control at 500 g/ha [3, 22]: 0%; pest or weed control at 500 g/ha [4, 23]: 0%; pest or weed control at 500 g/ha [5, 24]: 30%"
